Measurements from PubChem BioAssay (NCI).
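Each compound was tested at five concentrations against cells in 96-well plates for 48 hours. TGI denotes the concentration required for complete inhibition of growth.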

These molecules were tested on PC-3 prostate (assay: DTP human tumour cell line panel, 48 h).
O=S(=O)(O)c1cc(S(=O)(=O)O)c2c(N=Nc3ccc(N=Nc4ccccc4)cc3)c(O)ccc2c1 was tested, and the TGI was greater than 100 µM. With O=C(Nc1ccc2ccccc2c1)c1cc2cc(CCl)ccc2oc1=O the TGI was greater than 100 µM. With CN(C)CCNC(=O)c1c(O)ccc2c1c1c(n2CCc2ccccc2)C(=O)c2ccccc2C1=O the TGI was 29.1 µM. CCOC(=O)C(C/C=C/CO)N(C)C(=O)OC(C)(C)C (stereo unspecified) showed a TGI greater than 100 µM.

Each molecule was assayed on HL-60(TB) leukemia (assay: DTP human tumour cell line panel, 48 h).
O=S(=O)(O)c1cc(S(=O)(=O)O)c2c(N=Nc3ccc(N=Nc4ccccc4)cc3)c(O)ccc2c1 was tested, and the TGI was greater than 100 µM. For O=C(Nc1ccc2ccccc2c1)c1cc2cc(CCl)ccc2oc1=O, the TGI was greater than 100 µM. CN(C)CCNC(=O)c1c(O)ccc2c1c1c(n2CCc2ccccc2)C(=O)c2ccccc2C1=O showed a TGI of 18.1 µM. Work on CCOC(=O)C(C/C=C/CO)N(C)C(=O)OC(C)(C)C (stereo unspecified) yielded a TGI greater than 100 µM.

The molecules below were run on A498 renal (assay: DTP human tumour cell line panel, 48 h).
With O=S(=O)(O)c1cc(S(=O)(=O)O)c2c(N=Nc3ccc(N=Nc4ccccc4)cc3)c(O)ccc2c1 the TGI was greater than 100 µM. Work on O=C(Nc1ccc2ccccc2c1)c1cc2cc(CCl)ccc2oc1=O yielded a TGI greater than 100 µM. With CN(C)CCNC(=O)c1c(O)ccc2c1c1c(n2CCc2ccccc2)C(=O)c2ccccc2C1=O the TGI was 31.9 µM. Molecule CCOC(=O)C(C/C=C/CO)N(C)C(=O)OC(C)(C)C (stereo unspecified) has a TGI greater than 100 µM.

These molecules were tested on HT29 colon (assay: DTP human tumour cell line panel, 48 h).
O=S(=O)(O)c1cc(S(=O)(=O)O)c2c(N=Nc3ccc(N=Nc4ccccc4)cc3)c(O)ccc2c1 gave a TGI greater than 100 µM. Molecule O=C(Nc1ccc2ccccc2c1)c1cc2cc(CCl)ccc2oc1=O has a TGI greater than 100 µM. For CN(C)CCNC(=O)c1c(O)ccc2c1c1c(n2CCc2ccccc2)C(=O)c2ccccc2C1=O, the TGI was 19.3 µM. In the case of CCOC(=O)C(C/C=C/CO)N(C)C(=O)OC(C)(C)C (stereo unspecified), the TGI is reported as greater than 100 µM.

What follows are molecules tested on ACHN renal (assay: DTP human tumour cell line panel, 48 h).
O=S(=O)(O)c1cc(S(=O)(=O)O)c2c(N=Nc3ccc(N=Nc4ccccc4)cc3)c(O)ccc2c1 showed a TGI greater than 100 µM. For O=C(Nc1ccc2ccccc2c1)c1cc2cc(CCl)ccc2oc1=O, the TGI was greater than 100 µM. CN(C)CCNC(=O)c1c(O)ccc2c1c1c(n2CCc2ccccc2)C(=O)c2ccccc2C1=O gave a TGI of 23 µM. For CCOC(=O)C(C/C=C/CO)N(C)C(=O)OC(C)(C)C (stereo unspecified), the TGI was greater than 100 µM.

These molecules were tested on EKVX NSCLC (assay: DTP human tumour cell line panel, 48 h).
In the case of O=S(=O)(O)c1cc(S(=O)(=O)O)c2c(N=Nc3ccc(N=Nc4ccccc4)cc3)c(O)ccc2c1, the TGI is reported as greater than 100 µM. In the case of O=C(Nc1ccc2ccccc2c1)c1cc2cc(CCl)ccc2oc1=O, the TGI is reported as greater than 100 µM. CN(C)CCNC(=O)c1c(O)ccc2c1c1c(n2CCc2ccccc2)C(=O)c2ccccc2C1=O was tested, and the TGI was 28.5 µM. Molecule CCOC(=O)C(C/C=C/CO)N(C)C(=O)OC(C)(C)C (stereo unspecified) has a TGI greater than 100 µM.

These molecules were tested on MOLT-4 leukemia (assay: DTP human tumour cell line panel, 48 h).
For O=S(=O)(O)c1cc(S(=O)(=O)O)c2c(N=Nc3ccc(N=Nc4ccccc4)cc3)c(O)ccc2c1, the TGI was greater than 100 µM. O=C(Nc1ccc2ccccc2c1)c1cc2cc(CCl)ccc2oc1=O showed a TGI greater than 100 µM. CN(C)CCNC(=O)c1c(O)ccc2c1c1c(n2CCc2ccccc2)C(=O)c2ccccc2C1=O showed a TGI of 16.2 µM. Work on CCOC(=O)C(C/C=C/CO)N(C)C(=O)OC(C)(C)C (stereo unspecified) yielded a TGI greater than 100 µM.

These molecules were tested on U251 CNS (assay: DTP human tumour cell line panel, 48 h).
In the case of O=S(=O)(O)c1cc(S(=O)(=O)O)c2c(N=Nc3ccc(N=Nc4ccccc4)cc3)c(O)ccc2c1, the TGI is reported as greater than 100 µM. O=C(Nc1ccc2ccccc2c1)c1cc2cc(CCl)ccc2oc1=O was tested, and the TGI was greater than 100 µM. Work on CN(C)CCNC(=O)c1c(O)ccc2c1c1c(n2CCc2ccccc2)C(=O)c2ccccc2C1=O yielded a TGI of 13.9 µM. For CCOC(=O)C(C/C=C/CO)N(C)C(=O)OC(C)(C)C (stereo unspecified), the TGI was greater than 100 µM.

These molecules were tested on 786-0 renal (assay: DTP human tumour cell line panel, 48 h).
O=S(=O)(O)c1cc(S(=O)(=O)O)c2c(N=Nc3ccc(N=Nc4ccccc4)cc3)c(O)ccc2c1 gave a TGI greater than 100 µM. Molecule O=C(Nc1ccc2ccccc2c1)c1cc2cc(CCl)ccc2oc1=O has a TGI greater than 100 µM. For CN(C)CCNC(=O)c1c(O)ccc2c1c1c(n2CCc2ccccc2)C(=O)c2ccccc2C1=O, the TGI was 11.3 µM. CCOC(=O)C(C/C=C/CO)N(C)C(=O)OC(C)(C)C (stereo unspecified) gave a TGI greater than 100 µM.

What follows are molecules tested on SK-MEL-2 melanoma (assay: DTP human tumour cell line panel, 48 h).
For O=S(=O)(O)c1cc(S(=O)(=O)O)c2c(N=Nc3ccc(N=Nc4ccccc4)cc3)c(O)ccc2c1, the TGI was greater than 100 µM. For O=C(Nc1ccc2ccccc2c1)c1cc2cc(CCl)ccc2oc1=O, the TGI was 63.3 µM. For CN(C)CCNC(=O)c1c(O)ccc2c1c1c(n2CCc2ccccc2)C(=O)c2ccccc2C1=O, the TGI was 10.7 µM. CCOC(=O)C(C/C=C/CO)N(C)C(=O)OC(C)(C)C (stereo unspecified) showed a TGI greater than 100 µM.

Each molecule was assayed on SK-MEL-28 melanoma (assay: DTP human tumour cell line panel, 48 h).
Work on O=S(=O)(O)c1cc(S(=O)(=O)O)c2c(N=Nc3ccc(N=Nc4ccccc4)cc3)c(O)ccc2c1 yielded a TGI greater than 100 µM. O=C(Nc1ccc2ccccc2c1)c1cc2cc(CCl)ccc2oc1=O gave a TGI greater than 100 µM. Work on CN(C)CCNC(=O)c1c(O)ccc2c1c1c(n2CCc2ccccc2)C(=O)c2ccccc2C1=O yielded a TGI of 4.57 µM. For CCOC(=O)C(C/C=C/CO)N(C)C(=O)OC(C)(C)C (stereo unspecified), the TGI was greater than 100 µM.

The molecules below were run on RXF 393 renal (assay: DTP human tumour cell line panel, 48 h).
O=S(=O)(O)c1cc(S(=O)(=O)O)c2c(N=Nc3ccc(N=Nc4ccccc4)cc3)c(O)ccc2c1 showed a TGI greater than 100 µM. Work on O=C(Nc1ccc2ccccc2c1)c1cc2cc(CCl)ccc2oc1=O yielded a TGI of 54.1 µM. For CN(C)CCNC(=O)c1c(O)ccc2c1c1c(n2CCc2ccccc2)C(=O)c2ccccc2C1=O, the TGI was 5.17 µM. Molecule CCOC(=O)C(C/C=C/CO)N(C)C(=O)OC(C)(C)C (stereo unspecified) has a TGI greater than 100 µM.

What follows are molecules tested on SK-MEL-5 melanoma (assay: DTP human tumour cell line panel, 48 h).
For O=S(=O)(O)c1cc(S(=O)(=O)O)c2c(N=Nc3ccc(N=Nc4ccccc4)cc3)c(O)ccc2c1, the TGI was greater than 100 µM. O=C(Nc1ccc2ccccc2c1)c1cc2cc(CCl)ccc2oc1=O showed a TGI greater than 100 µM. CN(C)CCNC(=O)c1c(O)ccc2c1c1c(n2CCc2ccccc2)C(=O)c2ccccc2C1=O gave a TGI of 7.21 µM. CCOC(=O)C(C/C=C/CO)N(C)C(=O)OC(C)(C)C (stereo unspecified) was tested, and the TGI was greater than 100 µM.

The molecules below were run on MDA-N (assay: DTP human tumour cell line panel, 48 h).
Work on O=S(=O)(O)c1cc(S(=O)(=O)O)c2c(N=Nc3ccc(N=Nc4ccccc4)cc3)c(O)ccc2c1 yielded a TGI greater than 100 µM. O=C(Nc1ccc2ccccc2c1)c1cc2cc(CCl)ccc2oc1=O gave a TGI greater than 100 µM. For CN(C)CCNC(=O)c1c(O)ccc2c1c1c(n2CCc2ccccc2)C(=O)c2ccccc2C1=O, the TGI was 5.34 µM. Molecule CCOC(=O)C(C/C=C/CO)N(C)C(=O)OC(C)(C)C (stereo unspecified) has a TGI greater than 100 µM.

Each molecule was assayed on A549 NSCLC (assay: DTP human tumour cell line panel, 48 h).
Molecule O=S(=O)(O)c1cc(S(=O)(=O)O)c2c(N=Nc3ccc(N=Nc4ccccc4)cc3)c(O)ccc2c1 has a TGI greater than 100 µM. For O=C(Nc1ccc2ccccc2c1)c1cc2cc(CCl)ccc2oc1=O, the TGI was greater than 100 µM. CN(C)CCNC(=O)c1c(O)ccc2c1c1c(n2CCc2ccccc2)C(=O)c2ccccc2C1=O showed a TGI of 23.2 µM. With CCOC(=O)C(C/C=C/CO)N(C)C(=O)OC(C)(C)C (stereo unspecified) the TGI was greater than 100 µM.

Each molecule was assayed on SW-620 colon (assay: DTP human tumour cell line panel, 48 h).
With O=S(=O)(O)c1cc(S(=O)(=O)O)c2c(N=Nc3ccc(N=Nc4ccccc4)cc3)c(O)ccc2c1 the TGI was greater than 100 µM. O=C(Nc1ccc2ccccc2c1)c1cc2cc(CCl)ccc2oc1=O gave a TGI greater than 100 µM. CN(C)CCNC(=O)c1c(O)ccc2c1c1c(n2CCc2ccccc2)C(=O)c2ccccc2C1=O was tested, and the TGI was 20.6 µM. Work on CCOC(=O)C(C/C=C/CO)N(C)C(=O)OC(C)(C)C (stereo unspecified) yielded a TGI greater than 100 µM.

The molecules below were run on SF-295 CNS (assay: DTP human tumour cell line panel, 48 h).
O=S(=O)(O)c1cc(S(=O)(=O)O)c2c(N=Nc3ccc(N=Nc4ccccc4)cc3)c(O)ccc2c1 was tested, and the TGI was greater than 100 µM. With O=C(Nc1ccc2ccccc2c1)c1cc2cc(CCl)ccc2oc1=O the TGI was greater than 100 µM. For CN(C)CCNC(=O)c1c(O)ccc2c1c1c(n2CCc2ccccc2)C(=O)c2ccccc2C1=O, the TGI was 15.9 µM. Work on CCOC(=O)C(C/C=C/CO)N(C)C(=O)OC(C)(C)C (stereo unspecified) yielded a TGI greater than 100 µM.

The molecules below were run on T-47D breast (assay: DTP human tumour cell line panel, 48 h).
In the case of O=S(=O)(O)c1cc(S(=O)(=O)O)c2c(N=Nc3ccc(N=Nc4ccccc4)cc3)c(O)ccc2c1, the TGI is reported as greater than 100 µM. Molecule O=C(Nc1ccc2ccccc2c1)c1cc2cc(CCl)ccc2oc1=O has a TGI greater than 100 µM. CN(C)CCNC(=O)c1c(O)ccc2c1c1c(n2CCc2ccccc2)C(=O)c2ccccc2C1=O was tested, and the TGI was 8.5 µM. With CCOC(=O)C(C/C=C/CO)N(C)C(=O)OC(C)(C)C (stereo unspecified) the TGI was greater than 100 µM.

Each molecule was assayed on CCRF-CEM leukemia (assay: DTP human tumour cell line panel, 48 h).
O=S(=O)(O)c1cc(S(=O)(=O)O)c2c(N=Nc3ccc(N=Nc4ccccc4)cc3)c(O)ccc2c1 showed a TGI greater than 100 µM. O=C(Nc1ccc2ccccc2c1)c1cc2cc(CCl)ccc2oc1=O showed a TGI greater than 100 µM. In the case of CN(C)CCNC(=O)c1c(O)ccc2c1c1c(n2CCc2ccccc2)C(=O)c2ccccc2C1=O, the TGI is reported as 6.43 µM. For CCOC(=O)C(C/C=C/CO)N(C)C(=O)OC(C)(C)C (stereo unspecified), the TGI was greater than 100 µM.
